Where “and” joins values, the source holds several entries; their conditions need not be identical. Equal values may be shown once.

Series [1] can be described thus: Saturation point / solubility of riboflavin in aqueous medium at ambient temperature and pressure.
Description: An amount of alloxazine is measured for combination with a solvent such as an aqueous medium or a combination of aqueous medium and a non-polar solvent.
A short description of series [2]: Riboflavin concentration by absorbance after heated mixing in saline and filtration (Example 3). In kind it is physicochemical. The protocol: Riboflavin (approximately 70 mg) was added to saline (approximately 200 mL) and continuously mixed on a hot plate. The container was covered, and the solution was mixed for 40 minutes. the solution was filtered through a 0.2 micron filter. The filtered solution was diluted 1:10 and its absorbance was measured.
3 mL of the riboflavin and 147 mL saline were combined. […] 30 mL of the riboflavin/saline solution was transferred to each of four 75 cm^2 flasks, which were irradiated two at a time.

Series [3] can be described thus: Concentration stability of riboflavin preparations over time (Example 4). In kind it is physicochemical. The conditions noted are these: stored at ambient temperature and pressure. How it is done: The concentration stability of riboflavin was measured over a period of time to determine its stability.
Various preparation of riboflavin were prepared.
Samples 1-3 were prepared by adding 10 mg riboflavin to 100 mL saline, heating at 37° C. for 30 minutes, mixing on a stir-plate for 20 minutes, and filtering through a 20 micron filter.
Sample 4 was made by adding 10 mg riboflavin to 100 mL saline, heating, and filtering through a 0.2 micron filter.
Sample 5 was prepared by adding 20 mg riboflavin to 100 mL saline, heating while mixing for 30 minutes, and filtering through a 0.2 micron filter.
Sample 6 was prepared by adding 5 mg riboflavin to 10 mL saline, heating in a water bath at 60° C. for 30 minutes, shaking vigorously for 30 seconds, and filtering through a 0.2 micron filter.
The concentration stability of riboflavin compositions are shown for each preparation. The riboflavin concentration of each experimental heat treated riboflavin sample is above that of the unheated control sample. Further, the concentration remains stable over a period of time when stored at ambient temperature and pressure.

As to `Cc1cc2nc3c(=O)[nH]c(=O)nc-3n(C[C@H](O)[C@H](O)[C@H](O)CO)c2cc1C` [riboflavin, 7,8-dimethyl-10-ribityl isoalloxazine], in series [1] (22° C. and 1 atmosphere pressure, aqueous medium, untreated), the “saturation point concentration of riboflavin” value was determined as 114 µM. For the same compound, the “concentrations of riboflavin solutions” value in series [2] (Example 3 riboflavin solutions) is 515 µM and 528 µM. For the same compound, the “riboflavin decomposition (spectrum)” value in series [2] (after heated mixing 40 minutes and filtration) was “no evidence of riboflavin decomposition”. In series [2] (approx. 70 mg in approx. 200 mL saline, mixed on hot plate 40 minutes, 0.2 micron filtered, absorbance of 1:10 dilution), the riboflavin concentration was 540 µM.

As for `Cc1cc2nc3c(=O)[nH]c(=O)nc-3n(C[C@H](O)[C@H](O)[C@H](O)CO)c2cc1C` [riboflavin derivative alpha], in series [1] (room temperature), the “solubility compared to untreated riboflavin” value is “increased solubility”. Moreover, the “concentration stability over time” value in series [3] was “stable over time”.

The values are drawn from patent US8044051B2, “Methods and compositions for the production of high concentration alloxazine solutions” (CaridianBCT Biotechnologies, LLC, priority 2006, dated 2011).
